Measurements taken from patent US20150141381A1, “TETRACYCLINE COMPOUNDS HAVING TARGET THERAPEUTIC ACTIVITIES” (Paratek Pharmaceuticals, Inc., priority 2001, published 2015).
Like-named read-outs stand apart in the source and are kept apart here.

Assays:
E. coli mL308 225 = assay: In Vitro Anti-Bacterial Activity Assay (MIC), gram negative; assay type: cell-based; settings: Escherichia coli, ML308225, 18 h
S. aureus RN450 = assay: In Vitro Anti-Bacterial Activity Assay (MIC), gram positive; assay type: cell-based; settings: Staphylococcus aureus, RN450, 18 h
[1] = MIC class, Table 3, read-out: Antibiotic Activity Gram −
[2] = MIC class, Table 3, read-out: Antibiotic Activity Gram +
[3] = gram negative bacteria, read-out: Antibiotic Activity Gram − (MIC)
[4] = gram positive bacteria, read-out: Antibiotic Activity Gram + (MIC)
[5] = MIC class, Table 3 (Continued), read-out: Gram− activity
[6] = MIC class, Table 3 (Continued), read-out: Gram+ activity

| SMILES | MIC (E. coli mL308 225; [1]) [µg/mL] | MIC (S. aureus RN450; [2]) [µg/mL] | MIC (E. coli mL308 225; [3]) [µg/mL] | MIC (S. aureus RN450; [4]) [µg/mL] | also measured |
| --- | --- | --- | --- | --- | --- |
| CN(C)[C@@H]1C(O)=C(C(N)=O)C(=O)[C@@]2(O)C(O)=C3C(=O)c4c(O)ccc(CNCc5cccn5C)c4C[C@H]3C[C@@H]12 [KG] | < 4 | < 4 |  |  |  |
| CN(C)c1cc(CNOC(C)(C)C)c(O)c2c1C[C@H]1C[C@H]3[C@H](N(C)C)C(O)=C(C(N)=O)C(=O)[C@@]3(O)C(O)=C1C2=O |  |  | < 4 | < 4 |  |
| COc1ccc(NC(=O)Nc2cc(N(C)C)c3c(c2O)C(=O)C2=C(O)[C@]4(O)C(=O)C(C(N)=O)=C(O)[C@@H](N(C)C)[C@@H]4C[C@@H]2C3)cc1 [KB] | > 4 | < 4 |  |  |  |
| COc1ccc(-c2ccc(O)c3c2C[C@H]2C[C@H]4[C@H](N(C)C)C(O)=C(C(N)=O)C(=O)[C@@]4(O)C(O)=C2C3=O)c(OC)c1OC [JM] | > 4 | < 4 |  |  |  |
| CN(C)[C@@H]1C(O)=C(C(N)=O)C(=O)[C@@]2(O)C(O)=C3C(=O)c4c(O)ccc(-c5ccc(/C=N/CC#N)cc5)c4C[C@H]3C[C@@H]12 |  |  | > 4 | < 4 |  |
| CN(C)c1cc(C#Cc2cccc(O)c2)c(O)c2c1C[C@H]1C[C@H]3[C@H](N(C)C)C(O)=C(C(N)=O)C(=O)[C@@]3(O)C(O)=C1C2=O [AJ] | > 4 | < 4 |  |  |  |
| CCCC(=O)C[C@@H]1[C@H]2[C@H](N(C)C)C(O)=C(C(N)=O)C(=O)[C@@]2(O)C(O)=C2C(=O)c3c(O)cccc3C(C)[C@H]21 (some centres unmarked) |  |  |  |  | MIC (E. coli mL308 225; [5]): < 4 µg/mL; MIC (S. aureus RN450; [6]): < 4 µg/mL |
| CN(C)[C@@H]1C(O)=C(C(N)=O)C(=O)[C@@]2(O)C(O)=C3C(=O)c4c(O)ccc(-c5ccc(CNC6CC6)o5)c4C[C@H]3C[C@@H]12 |  |  | < 4 | < 4 |  |
| COc1ccc(-c2ccc(O)c3c2C[C@H]2C[C@H]4[C@H](N(C)C)C(O)=C(C(N)=O)C(=O)[C@@]4(O)C(O)=C2C3=O)cc1CN1CCN(C)CC1 [JY] | > 4 | < 4 |  |  |  |
| CN1CCC(NCc2ccc3c(c2O)C(=O)C2=C(O)[C@]4(O)C(=O)C(C(N)=O)=C(O)[C@@H](N(C)C)[C@@H]4C[C@@H]2C3)CC1 |  |  | > 4 | > 4 |  |
| COC(=O)c1ccc(-c2ccc(O)c3c2C[C@H]2C[C@H]4[C@H](N(C)C)C(O)=C(C(N)=O)C(=O)[C@@]4(O)C(O)=C2C3=O)cc1 |  |  |  |  | MIC (E. coli mL308 225; [5]): < 4 µg/mL; MIC (S. aureus RN450; [6]): < 4 µg/mL |
| CCOC(=O)C(Cc1ccccc1)NCc1ccc(OC)c(-c2ccc(O)c3c2C[C@H]2C[C@H]4[C@H](N(C)C)C(O)=C(C(N)=O)C(=O)[C@@]4(O)C(O)=C2C3=O)c1 (some centres unmarked) [FZ] | > 4 | < 4 |  |  |  |
| COc1ccc(C#Cc2cc(N(C)C)c3c(c2O)C(=O)C2=C(O)[C@]4(O)C(=O)C(C(N)=O)=C(O)[C@@H](N(C)C)[C@@H]4C[C@@H]2C3)cc1 |  |  |  |  | MIC (E. coli mL308 225; [5]): < 4 µg/mL; MIC (S. aureus RN450; [6]): < 4 µg/mL |
| CN(C)[C@@H]1C(O)=C(C(N)=O)C(=O)[C@@]2(O)C(O)=C3C(=O)c4c(O)ccc(C#CC5(O)CCCCC5)c4C[C@H]3C[C@@H]12 |  |  |  |  | MIC (E. coli mL308 225; [5]): < 4 µg/mL; MIC (S. aureus RN450; [6]): < 4 µg/mL |
| COC(=O)C1CCN(Cc2ccc(-c3ccc(O)c4c3C[C@H]3C[C@H]5[C@H](N(C)C)C(O)=C(C(N)=O)C(=O)[C@@]5(O)C(O)=C3C4=O)cc2)CC1 |  |  | < 4 | < 4 |  |
| CN(C)Cc1cc(-c2ccc(O)c3c2C[C@H]2C[C@H]4[C@H](N(C)C)C(O)=C(C(N)=O)C(=O)[C@@]4(O)C(O)=C2C3=O)ccc1F [OQ] | < 4 | < 4 |  |  |  |
| CC(=O)NCc1ccc(O)c2c1C[C@H]1C[C@H]3[C@H](N(C)C)C(O)=C(C(N)=O)C(=O)[C@@]3(O)C(O)=C1C2=O |  |  | > 4 | < 4 |  |
| COc1ccc(-c2ccc(O)c3c2C[C@H]2C[C@H]4[C@H](N(C)C)C(O)=C(C(N)=O)C(=O)[C@@]4(O)C(O)=C2C3=O)cc1CN1CCN(CCO)CC1 [KA] | > 4 | < 4 |  |  |  |
| CN1CCN(Cc2ccc(-c3cc(N(C)C)c4c(c3O)C(=O)C3=C(O)[C@]5(O)C(=O)C(C(N)=O)=C(O)[C@@H](N(C)C)[C@@H]5C[C@@H]3C4)o2)CC1 |  |  | > 4 | < 4 |  |
